# Laboratory results as given in US20180265877A1, “METHODS AND COMPOSITIONS FOR AGROBACTERIUM COMPRISING NEGATIVE SELECTION MARKERS” (PIONEER HI-BRED INTERNATIONAL, INC., priority 2015, published 2018).
# Key:
# [1] = tested on: Agrobacterium strain AGL0; experiment: Agrobacterium growth assay on solid minimal medium, wild-type AGL0; format: cell-based; parameters: key to Growth score: a score of zero (0) indicating no visible colonies; 1+ indicating a few isolated colonies; ++: progressing up to 5+; +++: progressing up to 5+; ++++: progressing up to 5+; +++++: 5+ indicating a confluent lawn
# Method: (§1) For all Agrobacterium growth-assay experiments, standard Agrobacterium minimal medium was used, with no additives as a control treatment, or with the addition of either 5-fluorocytosine, 5-fluorouracil or thymidine. To begin these tests, experiments were conducted to test for growth of wild-type and mutant AGL0 Agrobacterium strains on either 5-fluorocytosine (5-fluorocytosine, the non-toxic substrate of the CODA protein) or 5-fluorouracil (5-fluorouracil, the toxic product).
# (§2) In Table 4, results of a more detailed kill-curve for strain AGL0 on 5-fluorouracil are shown. […] Finally, a third experiment was performed using either wild-type AGL0 or an auxotrophic mutant of AGL0 in which the gene encoding thymidylate synthase was inactivated, rendering the bacteria incapable of growth in the absence of thymidine (this strain was referred to as AGL0 THY−). The two strains were plated at high densities (10^6 or 10^8 CFU/plate) onto medium containing 0, 1 or 3 μg/ml 5-fluorouracil, with each of these three treatments containing either 0 or 50 mg/l thymidine.
# (§3) The newly developed AGL0 mutant strain (THY−/codA+, see Example 1) was plated on varying concentrations of 5-fluorocytosine to assess growth. This strain, along with wild-type AGL0 were cultured overnight in liquid medium, diluted to 10^7 CFU and then 100 μl of suspension was plated onto minimal Agro medium+/− thymidine, with either 0, 100, 200 or 300 μg/ml 5-fluorocytosine, for a total of 8 treatments. After 72 hours at 28° C., the plates were scored for Agrobacterium growth.
# [2] = tested on: AGL0 THY−; experiment: Agrobacterium growth assay on solid medium, thymidine auxotroph AGL0 THY−; format: cell-based; details: thy 50 mg/l, 5-fluorouracil 0 μg/ml, after 24 hours
# Method: as §2
# [3] = tested on: AGL0 mutant strain (THY−/codA+); experiment: Growth of AGL0 THY−/codA+ on 5-fluorocytosine; format: cell-based, Agrobacterium
# Method: as §3
# [4] = tested on: Agrobacterium strain LBA4404; experiment: Agrobacterium growth assay on solid minimal medium, LBA4404; format: cell-based; parameters: key: a score of zero (0) indicating no visible colonies; 1+ indicating a few isolated colonies; ++: progressing up to 5+; +++: progressing up to 5+; ++++: progressing up to 5+; +++++: 5+ indicating a confluent lawn; details: LBA4404 plated at 1 × 10^4, after 3 days
# Method: as §1
# [5] = tested on: Agrobacterium strain EHA101; experiment: Agrobacterium growth assay on solid minimal medium, EHA101; format: cell-based; parameters: key: a score of zero (0) indicating no visible colonies; 1+ indicating a few isolated colonies; ++: progressing up to 5+; +++: progressing up to 5+; ++++: progressing up to 5+; +++++: 5+ indicating a confluent lawn; details: EHA101 plated at 1 x 10^4, after 3 days
# Method: as §1
# [6] = tested on: Agrobacterium strain EHA105; experiment: Agrobacterium growth assay on solid minimal medium, EHA105; format: cell-based; parameters: key: a score of zero (0) indicating no visible colonies; 1+ indicating a few isolated colonies; ++: progressing up to 5+; +++: progressing up to 5+; ++++: progressing up to 5+; +++++: 5+ indicating a confluent lawn; details: EHA105 plated at 1 × 10^4, after 3 days
# Method: as §1
# [7] = tested on: four Agrobacterium strains (AGL0, LBA4404, EHA101 and EHA105); experiment: Agrobacterium growth assay, the four strains; format: cell-based; details: 5-fluorocytosine up to the highest concentration tested (1000 μg/ml)
# Method: as §1
# [8] = tested on: immature embryos of inbred HC69; experiment: Callus initiation from corn immature embryos, inbred HC69; format: cell-based; details: for HC69: embryos producing a callus response / embryos plated / Embryo with culture - Response (callus initiation frequency): 18 d cultured on 13152C; for Embryo with culture - Response (callus initiation frequency): HC69
# Method: (§4) Agrobacterium was tolerant of the substrate (5-fluorocytosine) and was inhibited by low levels of the converted product (5-fluorouracil). An experiment was performed to determine whether corn immature embryos and growing callus were sensitive to the substrate, 5-fluorocytosine. Immature embryos of two inbred lines ([…] or PHH5G, representative non-stiff-stalk and stiff-stalk Pioneer Hi-Bred inbreds) were plated onto appropriate callus culture media (see Table 6) supplemented with 0, 100, […]
# [9] = tested on: immature embryos of inbred PHH5G; experiment: Callus initiation from corn immature embryos, inbred PHH5G; format: cell-based; details: for PHH5G: embryos producing a callus response / embryos plated / Embryo with culture - Response (callus initiation frequency): 18 d cultured on 13152C; for Embryo with culture - Response (callus initiation frequency): PHH5G
# Method: as §4
smiles,measurement,setting,value
"Cc1cn([C@H]2C[C@H](O)[C@@H](CO)O2)c(=O)[nH]c1=O [thy, thymidine]",Growth score,"[1]; AGL0 1 x 10^6, thy 50 mg/l, 5-fluorouracil 0 μg/ml, after 24 hours",+++
same,Growth score,"[1]; AGL0 1 x 10^8, thy 50 mg/l, 5-fluorouracil 0 μg/ml, after 24 hours",+++
same,Growth score,[2]; AGL0 THY- 1 x 10^6,+++
same,Growth score,[2]; AGL0 THY- 1 x 10^8,+++
same,Growth,"[3]; 50 mg/l thymidine, no 5-fluorocytosine, 72 hours",confluent lawn of colonies
Nc1nc(=O)[nH]cc1F [5-fluorocytosine],Growth score,"[1]; AGL0 plated at 1 × 10^4, 500 μg/ml 5-fluorocytosine, after 3 days",+++
same,Growth score,"[1]; AGL0 plated at 1 × 10^4, 1000 μg/ml 5-fluorocytosine, after 3 days",+++
same,Growth score,"[1]; AGL0 plated at 4 × 10^7, 500 μg/ml 5-fluorocytosine, after 3 days",+++++
same,Growth score,"[1]; AGL0 plated at 4 × 10^7, 1000 μg/ml 5-fluorocytosine, after 3 days",+++++
same,Growth,"[1]; wild-type AGL0, 100, 200 or 300 μg/ml 5-fluorocytosine, +/− thymidine, 72 hours at 28° C.",grew under all 5-fluorocytosine concentrations
same,Growth score,[4]; 500 μg/ml 5-fluorocytosine,+++
same,Growth score,[4]; 1000 μg/ml 5-fluorocytosine,+++
same,Growth score,[5]; 500 μg/ml 5-fluorocytosine,+++
same,Growth score,[5]; 1000 μg/ml 5-fluorocytosine,+++
same,Growth score,[6]; 500 μg/ml 5-fluorocytosine,+++
same,Growth score,[6]; 1000 μg/ml 5-fluorocytosine,+++
same,Growth,"[3]; 100, 200 or 300 μg/ml 5-fluorocytosine, thymidine present, 72 hours at 28° C.",did not grow
same,Growth inhibition,[7],no apparent growth inhibition
same,HC69: embryos producing a callus response / embryos plated,[8]; 100 μg/ml 5-fluorocytosine,32/50
same,HC69: embryos producing a callus response / embryos plated,[8]; 250 μg/ml 5-fluorocytosine,34/50
same,HC69: embryos producing a callus response / embryos plated,[8]; 400 μg/ml 5-fluorocytosine,34/50
same,Embryo with culture - Response (callus initiation frequency),[8]; 100 μg/ml 5-fluorocytosine,64%
same,Embryo with culture - Response (callus initiation frequency),[8]; 250 μg/ml 5-fluorocytosine,68%
same,Embryo with culture - Response (callus initiation frequency),[8]; 400 μg/ml 5-fluorocytosine,68%
same,Callus initiation frequency or callus growth rates vs no 5-fluorocytosine,"[8]; inbred printed as HC96, 100, 250 or 400 μg/ml 5-fluorocytosine, 3 weeks",no discernible differences
same,PHH5G: embryos producing a callus response / embryos plated,[9]; 100 μg/ml 5-fluorocytosine,12/50
same,PHH5G: embryos producing a callus response / embryos plated,[9]; 250 μg/ml 5-fluorocytosine,18/50
same,PHH5G: embryos producing a callus response / embryos plated,[9]; 400 μg/ml 5-fluorocytosine,8/25
same,Embryo with culture - Response (callus initiation frequency),[9]; 100 μg/ml 5-fluorocytosine,24%
same,Embryo with culture - Response (callus initiation frequency),[9]; 250 μg/ml 5-fluorocytosine,36%
same,Embryo with culture - Response (callus initiation frequency),[9]; 400 μg/ml 5-fluorocytosine,32%
same,Callus initiation frequency or callus growth rates vs no 5-fluorocytosine,"[9]; inbred PHH5G, 100, 250 or 400 μg/ml 5-fluorocytosine, 3 weeks",no discernible differences
